According to patent publication US20250163104A1, “MACROCYCLIC IMMUNOMODULATORS” (priority 2021, published 2025):
Where a SMILES comes first, the peptide text is derived from it. Bridges are numbered along the chain shown (N, C = ends). [ ]: non-standard residue; d: D form. The star is where a group is joined. ξ: configuration not given here. Phe(4-(3-Py)) = N[C@@H](Cc1ccc(-c2cccnc2)cc1)C(=O)O; Phe(3-CF3) = N[C@@H](Cc1cccc(C(F)(F)F)c1)C(=O)O; Ala(morpholin-4-yl) = N[C@@H](CN1CCOCC1)C(=O)O; Phe(4-COOH) = N[C@@H](Cc1ccc(C(=O)O)cc1)C(=O)O; Bip = N[C@@H](Cc1ccc(-c2ccccc2)cc1)C(=O)O; Phe(3-Me) = Cc1cccc(C[C@H](N)C(=O)O)c1; Val(3-OH) = CC(C)(O)[C@H](N)C(=O)O; 4Pal = N[C@@H](Cc1ccncc1)C(=O)O; Cha = N[C@@H](CC1CCCCC1)C(=O)O; Cit = NC(=O)NCCC[C@H](N)C(=O)O; Ile(3ξ) = CCC(C)[C@H](N)C(=O)O; Thr(3ξ) = CC(O)[C@H](N)C(=O)O; Carboxymethyl = O=C(O)C*; Nle = CCCC[C@H](N)C(=O)O; Orn = NCCC[C@H](N)C(=O)O; dDap = NC[C@@H](N)C(=O)O; Dab = NCC[C@H](N)C(=O)O; Dap = NC[C@H](N)C(=O)O

Target: T1, human PD-1 / PD-L1-Ig binding on Jurkat cell line over-expressing human PD-1 (Jurkat-PD-1) (Homo sapiens, UniProt Q15116)
T1 construct: expressed in transfected cells; host or cells: Jurkat
Experiment: Jurkat-PD-1 Cell Binding High-Content Screening Assay (CBA)
Format: cell-based
Details: Jurkat HPD1_PDL1 IC50, Jurkat-PD-1 cells, PE-labeled PD-L1-Ig 20 nM final
Method in brief: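 Cell-bound PE-labeled PD-L1-Ig (20 nM final, 1 h) measured by high-content imaging after fixation and Hoechst 33342 counterstain. Compound was applied first for 2 h at 37° C. to Jurkat cells over-expressing human PD-1 in DMEM with 10% FCS.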

T1 sequence (Q15116 25-288): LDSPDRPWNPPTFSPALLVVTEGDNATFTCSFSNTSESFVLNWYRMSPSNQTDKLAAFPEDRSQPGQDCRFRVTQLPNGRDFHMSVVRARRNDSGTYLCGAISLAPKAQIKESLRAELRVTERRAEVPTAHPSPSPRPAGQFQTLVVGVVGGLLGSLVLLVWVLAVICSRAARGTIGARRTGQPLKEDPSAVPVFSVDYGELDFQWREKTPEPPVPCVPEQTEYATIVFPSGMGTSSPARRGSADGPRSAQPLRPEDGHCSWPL

Row | SMILES | IC50
1 | CC(C)C[C@H]1NC(=O)[C@H](CCCN)NC(=O)[C@H](C(C)C)NC(=O)[C@H](Cc2ccc(-c3ccccc3)cc2)NC(=O)[C@H](C(C)C)NC(=O)[C@H](Cc2c[nH]c3ccccc23)NC(=O)[C@H](CC(=O)O)NC(=O)[C@H](Cc2ccc(OCc3ccccc3)cc2)NC(=O)[C@H](CN)NC(=O)CSC[C@@H](C(=O)N[C@@H](C)C(N)=O)NC(=O)[C@H]([C@@H](C)O)NC(=O)[C@H](C(C)C)NC(=O)[C@H](CC2CCCCC2)NC(=O)[C@H](CCN)NC1=O [Compound 1528] | 100 nM

Same assay, conditions: Jurkat-PD-1 cells, PE-labeled PD-L1-Ig 20 nM final; read-out: Jurkat HPD1_PDL1 IC50

Row | SMILES | IC50
2 | CC(C)C[C@@H]1NC(=O)[C@H](CCN)NC(=O)[C@@H](CC(C)C)NC(=O)[C@@H](CN)NC(=O)[C@H](C(C)C)NC(=O)[C@H](Cc2ccc(-c3ccccc3)cc2)NC(=O)[C@H](C(C)C)NC(=O)[C@H](Cc2c[nH]c3ccccc23)NC(=O)[C@H](CC(=O)O)NC(=O)[C@H](Cc2ccc(O)cc2)NC(=O)[C@H](CC(N)=O)NC(=O)CSC[C@@H](C(=O)N[C@@H](C)C(N)=O)NC(=O)[C@H]([C@@H](C)O)NC(=O)[C@H](C(C)C)NC1=O [Compound 1022] ({CH2CO}-NYDWV[Bip]V[dDap][dL][Dab]LVTCA-NH2; thioether N-14) | 17.7 nM
3 | CCC(C)[C@@H]1NC(=O)[C@H](Cc2ccc(-c3ccccc3)cc2)NC(=O)[C@H](CC(C)C)NC(=O)[C@H](Cc2c[nH]c3ccccc23)NC(=O)[C@H](CC(=O)O)NC(=O)[C@H](Cc2ccc(OCC(=O)O)cc2)NC(=O)[C@H](C(C)O)NC(=O)CSC[C@@H](C(=O)N[C@@H](CC(N)=O)C(=O)O)NC(=O)[C@H](CO)NC(=O)[C@H](C(C)C)NC(=O)[C@H](CC(C)C)NC(=O)[C@H](CCN)NC(=O)[C@@H](CC(C)C)NC(=O)[C@H](CCCN)NC1=O (stereo partly drawn) [Compound 2577] ({CH2CO}-[Thr(3ξ)]Y(Carboxymethyl)DWL[Bip][Ile(3ξ)][Orn][dL][Dab]LVSCN-OH; thioether N-14) | 13.1 nM
4 | CC[C@H](C)[C@@H]1NC(=O)[C@H](Cc2ccc(-c3ccccc3)cc2)NC(=O)[C@H](C(C)C)NC(=O)[C@H](Cc2c[nH]c3ccccc23)NC(=O)[C@H](CC(=O)O)NC(=O)[C@H](Cc2ccc(O)cc2)NC(=O)[C@H](CN)NC(=O)CSC[C@@H](C(=O)N[C@@H](C)C(N)=O)NC(=O)[C@H]([C@@H](C)O)NC(=O)[C@H](C(C)C)NC(=O)[C@H](CC2CCCCC2)NC(=O)[C@H](CCCNC(=N)N)NC(=O)[C@@H](CC(C)C)NC(=O)[C@H](CCCN)NC1=O [Compound 1145] ({CH2CO}-[Dap]YDWV[Bip]I[Orn][dL]R[Cha]VTCA-NH2; thioether N-14) | 8.7 nM
5 | CCCC[C@@H]1NC(=O)[C@H](CC(N)=O)NC(=O)[C@@H](CC(C)C)NC(=O)[C@H](CCCN)NC(=O)[C@H](C(C)C)NC(=O)[C@H](Cc2ccc(-c3ccccc3)cc2)NC(=O)[C@H](CC(C)C)NC(=O)[C@H](Cc2c[nH]c3ccccc23)NC(=O)[C@H](CC(=O)O)NC(=O)[C@H](Cc2ccncc2)NC(=O)[C@H](Cc2ccc(OCC(=O)O)cc2)NC(=O)CSC[C@@H](C(=O)NCC(N)=O)NC(=O)[C@H](CO)NC(=O)[C@H](C(C)C)NC1=O [Compound 1343] ({CH2CO}-Y(Carboxymethyl)[4Pal]DWL[Bip]V[Orn][dL]N[Nle]VSCG-NH2; thioether N-14) | 29.9 nM
6 | CC(C)C[C@@H]1NC(=O)[C@H](CCN)NC(=O)[C@@H](CC(C)C)NC(=O)[C@H](CCCN)NC(=O)[C@H](CCCNC(N)=O)NC(=O)[C@H](Cc2ccc(-c3ccccc3)cc2)NC(=O)[C@H](C(C)C)NC(=O)[C@H](Cc2c[nH]c3ccccc23)NC(=O)[C@H](CC(=O)O)NC(=O)[C@H](Cc2ccc(O)cc2)NC(=O)[C@H](CC(N)=O)NC(=O)CSC[C@@H](C(=O)N[C@@H](C)C(N)=O)NC(=O)[C@H](CO)NC(=O)[C@H](C(C)C)NC1=O [Compound 1109] ({CH2CO}-NYDWV[Bip][Cit][Orn][dL][Dab]LVSCA-NH2; thioether N-14) | 36 nM

The remaining lines, values ahead:

Row | IC50 | SMILES
7 | 6.9 nM | CC[C@H](C)[C@@H]1NC(=O)[C@H](Cc2ccc(-c3ccccc3)cc2)NC(=O)[C@H](C(C)C)NC(=O)[C@H](Cc2c[nH]c3ccccc23)NC(=O)[C@H](CC(=O)O)NC(=O)[C@H](Cc2ccc(C(=O)O)cc2)NC(=O)[C@H](Cc2ccc(OCC(=O)O)cc2)NC(=O)CSC[C@@H](C(=O)N[C@@H](C)C(N)=O)NC(=O)[C@H]([C@@H](C)O)NC(=O)[C@H](C(C)C)NC(=O)[C@H](CC(C)C)NC(=O)[C@H](CCN)NC(=O)[C@@H](CC(C)C)NC(=O)[C@H](CCCN)NC1=O [Compound 1250] ({CH2CO}-Y(Carboxymethyl)[Phe(4-COOH)]DWV[Bip]I[Orn][dL][Dab]LVTCA-NH2; thioether N-14)
8 | 15.5 nM | Cc1cccc(C[C@@H]2NC(=O)[C@H](CC(=O)O)NC(=O)[C@H](Cc3ccncc3)NC(=O)[C@H](Cc3ccc(OCC(=O)O)cc3)NC(=O)CSC[C@@H](C(=O)N[C@@H](C)C(N)=O)NC(=O)[C@H]([C@@H](C)O)NC(=O)[C@H](C(C)C)NC(=O)[C@H](CC(C)C)NC(=O)[C@H](CCN)NC(=O)[C@@H](CC(C)C)NC(=O)[C@H](CCCN)NC(=O)[C@H](CCCNC(N)=O)NC(=O)[C@H](Cc3ccc(-c4ccccc4)cc3)NC(=O)[C@H](C(C)C)NC2=O)c1 [Compound 1324] ({CH2CO}-Y(Carboxymethyl)[4Pal]D[Phe(3-Me)]V[Bip][Cit][Orn][dL][Dab]LVTCA-NH2; thioether N-14)
9 | 48.4 nM | Cc1cccc(C[C@@H]2NC(=O)[C@H](CC(=O)O)NC(=O)[C@H](Cc3ccc(OCC(=O)O)cc3)NC(=O)[C@H](CN)NC(=O)CSC[C@@H](C(=O)N[C@@H](C)C(N)=O)NC(=O)[C@H]([C@@H](C)O)NC(=O)[C@H](C(C)C)NC(=O)[C@H](CC3CCCCC3)NC(=O)[C@H](CCN)NC(=O)[C@@H](CC(C)C)NC(=O)[C@H](CCCN)NC(=O)[C@H](CCN)NC(=O)[C@H](Cc3ccc(-c4ccccc4)cc3)NC(=O)[C@H](C(C)C)NC2=O)c1 [Compound 1309] ({CH2CO}-[Dap]Y(Carboxymethyl)D[Phe(3-Me)]V[Bip][Dab][Orn][dL][Dab][Cha]VTCA-NH2; thioether N-14)
10 | 1.5 nM | CC(C)C[C@H]1NC(=O)[C@H](CCCN)NC(=O)[C@H](Cc2ccc(C(=O)O)cc2)NC(=O)[C@H](Cc2ccc(-c3ccccc3)cc2)NC(=O)[C@H](Cc2ccc(-c3cccnc3)cc2)NC(=O)[C@H](Cc2cccc(C(F)(F)F)c2)NC(=O)[C@H](CC(=O)O)NC(=O)[C@H](Cc2ccc(C(=O)O)cc2)NC(=O)[C@H](CN2CCOCC2)NC(=O)CSC[C@@H](C(=O)N[C@@H](CCN)C(N)=O)NC(=O)[C@H](CCC(=O)O)NC(=O)[C@H](C(C)C)NC(=O)[C@H](CC2CCCCC2)NC(=O)[C@H](CCN)NC1=O [Example 2731] ({CH2CO}-[Ala(morpholin-4-yl)][Phe(4-COOH)]D[Phe(3-CF3)][Phe(4-(3-Py))][Bip][Phe(4-COOH)][Orn][dL][Dab][Cha]VEC[Dab]-NH2; thioether N-14)
11 | 8.5 nM | CC(C)C[C@H]1NC(=O)[C@H](CCCN)NC(=O)[C@H](C(C)C)NC(=O)[C@H](Cc2ccc(-c3ccccc3)cc2)NC(=O)[C@H](C(C)C)NC(=O)[C@H](Cc2c[nH]c3ccccc23)NC(=O)[C@H](CC(=O)O)NC(=O)[C@H](Cc2ccc(OCC(=O)O)cc2)NC(=O)[C@H](C(C)O)NC(=O)CSC[C@@H](C(=O)N[C@@H](CCN)C(N)=O)NC(=O)[C@H](C(C)O)NC(=O)[C@H](C(C)(C)O)NC(=O)[C@H](CC2CCCCC2)NC(=O)[C@H](CCN)NC1=O (stereo partly drawn) [Compound 2631] ({CH2CO}-[Thr(3ξ)]Y(Carboxymethyl)DWV[Bip]V[Orn][dL][Dab][Cha][Val(3-OH)][Thr(3ξ)]C[Dab]-NH2; thioether N-14)
